Measured values taken from PMC4730251, “Cloning, Characterization and Expression Pattern Analysis of a Cytosolic Copper/Zinc Superoxide Dismutase (SaCSD1) in a Highly Salt Tolerant Mangrove (Sonneratia alba)” (International Journal of Molecular Sciences, 2015).

Biological target: T1, SaCSD1 (Sonneratia alba, UniProt A0A0U1X631)
T1 construct: gene SOD1
T1 sequence (A0A0U1X631 1-152): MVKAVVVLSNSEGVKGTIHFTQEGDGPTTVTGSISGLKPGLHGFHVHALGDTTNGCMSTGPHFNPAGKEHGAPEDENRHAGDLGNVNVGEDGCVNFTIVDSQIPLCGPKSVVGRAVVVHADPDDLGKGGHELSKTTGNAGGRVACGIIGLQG
Assay: SOD activity assay kit (WST-1 method)
Format: biochemical

[O]O [superoxide]
SOD activity assay kit (WST-1 method): Superoxide dismutase activity assay kit (WST-1 method) was used to detect the SOD activity
